Assay: In vitro liposome fractionation assay
Assay type: binding
Settings: 5 μg protein, 15 minute incubation, centrifugation, SDS-PAGE
Experimental: FIG. 51. Recombinant tTG can associate with lipid vesicles lacking any protein content. Synthetic liposomes were prepared by extrusion and then equal amounts of this preparation were combined with either 5 μg recombinant tTG (tTG WT) or 5 μg bovine serum albumin (BSA). After a 15 minute incubation, the liposomes were pelleted by centrifugation, and the resulting supernatant (Sup) and liposome (Pellet) fractions were resolved by SDS-PAGE. The gel was then stained with Quick Blue to detect the proteins. A lane containing recombinant tTG (Rec. tTG WT) was included as a standard.
To obtain the results depicted in FIG. 51, the following procedures were used. In vitro liposome fractionation assays—Synthetic liposomes were prepared from a lipid mixture containing 35% phosphatidylethanolamine, 25% phosphatidylserine, 5% phosphatidylinositol, and 35% cholesterol re-suspended in TBSM buffer (20 mM Tris, pH 7.5, 150 mM NaCl, and 2 mM MgCl2). The lipids were extruded through an 8 micron filter, pelleted by centrifugation at 13,000 rpm for 15 minutes, and re-suspended in TBSM buffer. Equal amounts of the lipid preparation were then incubated with either recombinant wild-type tTG or BSA for 15 minutes, followed by centrifugation at 13,000 rpm for 10 minutes at room temperature. […]

## bovine serum albumin [BSA]
  protein pelleted with synthetic liposomes: only weakly pelleted

Reference: patent US20140079717A1, “Compositions and Methods to Prevent Cell Transformation and Cancer Metastasis” (CORNELL UNIVERSITY, priority 2011, published 2014)
